Results taken from ChEMBL document CHEMBL4308852, “GNE-371, a Potent and Selective Chemical Probe for the Second Bromodomains of Human Transcription-Initiation-Factor TFIID Subunit 1 and Transcription-Initiation-Factor TFIID Subunit 1-like” (J Med Chem, 2018).
Values after ≈ are worked out from the molar mass of the structure shown. Active and inactive are the calls of the source. The rule behind the calls is not given here.

Experiments:
[1] = target: T1, Bromodomain-containing protein 4 (Homo sapiens, UniProt O60885); assay: Inhibition of recombinant His-tagged BRD4 bromodomain 1 (unknown origin) after 10 mins by TR-FRET assay
[2] = target: T1, Bromodomain-containing protein 4; assay: Inhibition of recombinant His-tagged BRD4 bromodomain 2 (unknown origin) after 10 mins by TR-FRET assay
[3] = target: T2, Chromatin remodeling regulator CECR2 (Homo sapiens, UniProt Q9BXF3); assay: Inhibition of recombinant His-tagged CECR2 (unknown origin) after 10 mins by TR-FRET assay
[4] = target: T3, Transcription initiation factor TFIID subunit 1 (Homo sapiens, UniProt P21675); assay: Inhibition of recombinant His-tagged TAF1 bromodomain 2 (unknown origin) after 10 mins by TR-FRET assay
[5] = target: T3, Transcription initiation factor TFIID subunit 1; assay: Inhibition of recombinant His-tagged TAF1 bromodomain 1 (unknown origin) after 10 mins by TR-FRET assay
CREB-binding protein = CREB-binding protein (Homo sapiens, UniProt Q92793); assay: Inhibition of recombinant His-tagged CBP (unknown origin) after 10 mins by TR-FRET assay
[6] = target: T1, Bromodomain-containing protein 4; assay: Binding affinity to recombinant human full length DNA-tagged BRD4 short isoform expressed in bacterial expression system by bromoscan assay
[7] = target: Transcription initiation factor TFIID subunit 1-like (Homo sapiens, UniProt Q8IZX4); assay: Binding affinity to recombinant human full length DNA-tagged TAF1L bromodomain 2 (1523 to 1654 residues) expressed in bacterial expression system by bromoscan assay
NCI-H23 = assay: Synergistic cytotoxicity against human H23 cells assessed as reduction in cell viability at 100 nM after 48 hrs in presence of BRD4 inhibitor JQ1 by celltiter-glo assay; type: functional, cell-based
[8] = Kinetic solubility of the compound; type: physicochemical; conditions: read-out: Kinetic_solubility
[9] = target: T2, Chromatin remodeling regulator CECR2
[10] = target: T1, Bromodomain-containing protein 4; conditions: 20 uM

T3 sequence (P21675 whole entry): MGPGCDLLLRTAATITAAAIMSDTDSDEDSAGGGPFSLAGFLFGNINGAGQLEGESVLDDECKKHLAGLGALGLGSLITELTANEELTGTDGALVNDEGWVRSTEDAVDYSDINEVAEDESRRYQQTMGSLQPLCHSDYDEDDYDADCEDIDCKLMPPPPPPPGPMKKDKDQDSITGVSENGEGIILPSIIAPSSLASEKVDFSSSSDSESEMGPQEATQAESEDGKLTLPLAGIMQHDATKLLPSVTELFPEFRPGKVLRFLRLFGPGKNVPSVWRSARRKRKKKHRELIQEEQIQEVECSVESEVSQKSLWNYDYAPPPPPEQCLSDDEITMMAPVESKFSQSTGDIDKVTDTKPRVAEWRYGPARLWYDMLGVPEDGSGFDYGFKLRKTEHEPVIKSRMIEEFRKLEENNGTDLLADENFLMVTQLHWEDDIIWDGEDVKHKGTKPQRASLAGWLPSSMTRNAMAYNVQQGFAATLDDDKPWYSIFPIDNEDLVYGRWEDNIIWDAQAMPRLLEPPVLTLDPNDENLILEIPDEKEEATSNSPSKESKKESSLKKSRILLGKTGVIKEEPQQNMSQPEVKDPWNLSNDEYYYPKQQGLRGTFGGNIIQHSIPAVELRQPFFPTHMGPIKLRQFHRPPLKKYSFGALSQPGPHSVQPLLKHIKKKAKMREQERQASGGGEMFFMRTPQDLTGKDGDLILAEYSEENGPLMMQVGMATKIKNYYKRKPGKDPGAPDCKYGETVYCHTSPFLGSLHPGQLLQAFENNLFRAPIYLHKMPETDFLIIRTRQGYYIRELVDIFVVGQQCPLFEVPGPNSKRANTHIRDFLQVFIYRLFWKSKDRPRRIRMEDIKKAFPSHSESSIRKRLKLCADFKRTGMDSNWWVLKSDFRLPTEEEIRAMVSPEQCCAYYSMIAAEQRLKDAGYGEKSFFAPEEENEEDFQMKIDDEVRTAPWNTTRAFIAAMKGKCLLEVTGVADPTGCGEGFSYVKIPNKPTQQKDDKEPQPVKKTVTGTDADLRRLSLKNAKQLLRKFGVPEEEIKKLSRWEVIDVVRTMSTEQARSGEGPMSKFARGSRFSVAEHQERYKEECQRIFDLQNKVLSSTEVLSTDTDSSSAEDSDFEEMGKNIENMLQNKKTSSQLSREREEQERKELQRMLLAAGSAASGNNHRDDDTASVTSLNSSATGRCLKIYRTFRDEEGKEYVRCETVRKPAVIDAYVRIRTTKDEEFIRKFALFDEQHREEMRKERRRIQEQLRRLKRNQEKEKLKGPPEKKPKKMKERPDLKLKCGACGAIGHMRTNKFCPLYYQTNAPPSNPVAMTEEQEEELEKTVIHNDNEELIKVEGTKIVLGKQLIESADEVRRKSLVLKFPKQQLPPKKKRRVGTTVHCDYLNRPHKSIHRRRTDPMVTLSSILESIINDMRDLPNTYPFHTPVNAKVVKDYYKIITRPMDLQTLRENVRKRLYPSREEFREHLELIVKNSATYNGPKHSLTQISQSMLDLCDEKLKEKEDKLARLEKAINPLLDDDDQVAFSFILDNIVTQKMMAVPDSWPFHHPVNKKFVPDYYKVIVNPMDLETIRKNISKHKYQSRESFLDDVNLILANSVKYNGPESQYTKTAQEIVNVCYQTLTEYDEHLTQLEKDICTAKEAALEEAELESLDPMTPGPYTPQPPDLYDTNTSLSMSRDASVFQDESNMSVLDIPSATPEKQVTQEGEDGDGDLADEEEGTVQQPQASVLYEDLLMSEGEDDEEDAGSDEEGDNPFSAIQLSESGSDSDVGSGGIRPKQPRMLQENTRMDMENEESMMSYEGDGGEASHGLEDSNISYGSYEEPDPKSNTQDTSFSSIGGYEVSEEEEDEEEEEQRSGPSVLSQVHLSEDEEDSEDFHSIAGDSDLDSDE
T2 sequence (Q9BXF3 whole entry): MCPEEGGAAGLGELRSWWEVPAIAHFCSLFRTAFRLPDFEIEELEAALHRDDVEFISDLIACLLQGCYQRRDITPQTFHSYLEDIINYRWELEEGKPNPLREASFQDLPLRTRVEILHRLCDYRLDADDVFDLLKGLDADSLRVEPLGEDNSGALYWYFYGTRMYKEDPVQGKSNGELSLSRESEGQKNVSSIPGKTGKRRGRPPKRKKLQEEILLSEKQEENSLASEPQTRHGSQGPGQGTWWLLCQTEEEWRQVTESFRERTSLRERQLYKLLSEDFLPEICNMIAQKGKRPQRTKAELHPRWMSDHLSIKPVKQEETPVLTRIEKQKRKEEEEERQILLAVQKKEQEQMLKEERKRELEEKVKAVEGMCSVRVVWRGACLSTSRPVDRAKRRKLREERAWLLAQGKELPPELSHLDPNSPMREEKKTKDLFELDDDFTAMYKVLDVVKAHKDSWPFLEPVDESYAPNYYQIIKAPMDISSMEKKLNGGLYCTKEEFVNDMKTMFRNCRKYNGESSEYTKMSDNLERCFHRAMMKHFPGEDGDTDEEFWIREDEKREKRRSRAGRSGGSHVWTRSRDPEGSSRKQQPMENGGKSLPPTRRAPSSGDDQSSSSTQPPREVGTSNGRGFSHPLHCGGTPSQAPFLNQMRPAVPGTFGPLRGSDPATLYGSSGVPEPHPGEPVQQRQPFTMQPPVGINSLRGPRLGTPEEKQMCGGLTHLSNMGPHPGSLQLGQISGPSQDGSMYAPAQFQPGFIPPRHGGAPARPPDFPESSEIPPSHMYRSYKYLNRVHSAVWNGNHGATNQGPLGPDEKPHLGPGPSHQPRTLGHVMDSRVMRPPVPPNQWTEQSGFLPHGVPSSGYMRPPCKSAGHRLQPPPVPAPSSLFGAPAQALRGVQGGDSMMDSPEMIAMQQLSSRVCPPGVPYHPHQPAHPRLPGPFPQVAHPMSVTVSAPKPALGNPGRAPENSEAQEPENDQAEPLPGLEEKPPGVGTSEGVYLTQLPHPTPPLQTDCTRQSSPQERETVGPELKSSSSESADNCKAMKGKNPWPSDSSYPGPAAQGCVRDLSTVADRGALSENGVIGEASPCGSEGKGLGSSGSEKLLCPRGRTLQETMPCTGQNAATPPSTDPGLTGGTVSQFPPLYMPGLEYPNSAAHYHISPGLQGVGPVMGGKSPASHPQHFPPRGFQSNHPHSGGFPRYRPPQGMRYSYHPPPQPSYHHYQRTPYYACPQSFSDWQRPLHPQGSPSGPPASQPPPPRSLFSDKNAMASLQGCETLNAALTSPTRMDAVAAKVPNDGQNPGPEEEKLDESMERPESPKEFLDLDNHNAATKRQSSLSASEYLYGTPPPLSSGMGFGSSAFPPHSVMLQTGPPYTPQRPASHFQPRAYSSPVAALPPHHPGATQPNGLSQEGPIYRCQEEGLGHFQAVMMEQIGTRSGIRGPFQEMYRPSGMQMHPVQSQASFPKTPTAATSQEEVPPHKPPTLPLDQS

| IC50 [1] | IC50 [2] | SMILES | IC50 [3] | IC50 [4] | IC50 [5] | also measured |
| --- | --- | --- | --- | --- | --- | --- |
| 3.6 µM | 4.4 µM | C=CCCn1cc(-c2cc(C(=O)N3CCOCC3)c3c(c2)ncn3C)c2cc[nH]c2c1=O | 0.23 µM | – | – | – |
| 7.9 µM | 17 µM | C=CCCn1cc(-c2cc(F)c(F)c(C(=O)N3CCOCC3)c2)c2cc[nH]c2c1=O | – | – | – | – |
| 2.3 µM | 4.4 µM | C=CCCn1cc(-c2cc(C(=O)N3CCOCC3)c3nc[nH]c3c2)c2cc[nH]c2c1=O | – | – | – | – |
| 8.2 µM | 12 µM | C=CCCn1cc(-c2cc(C(=O)N3CCOCC3)c3ncn(C)c3c2)c2cc[nH]c2c1=O | 0.36 µM | – | – | – |
| > 20 µM | > 20 µM | C=CCCn1cc(-c2cc(C(=O)N3CCOCC3)cc3[nH]cnc23)c2cc[nH]c2c1=O | – | – | – | – |
| 0.75 µM | 2.4 µM | C=CCCn1cc(-c2cccc(C(=O)N(C)C3CCCCC3)c2)c2cc[nH]c2c1=O | 4 µM | 0.067 µM | 13 µM | IC50 (CREB-binding protein): > 20 µM |
| 3.4 µM | 6.8 µM | C=CCCn1cc(-c2cc(C(=O)N3CCOCC3)c3ncn(CC)c3c2)c2cc[nH]c2c1=O | – | – | – | – |
| 2 µM | 1 µM | C=CCCn1cc(-c2cc(C(=O)N3CCOCC3)c3c(c2)ncn3CC)c2cc[nH]c2c1=O | 2.6 µM | 0.016 µM | > 20 µM | – |

Continued, compound first:

| SMILES | IC50 [1] | IC50 [2] | IC50 [3] | IC50 [4] | IC50 [5] | also measured |
| --- | --- | --- | --- | --- | --- | --- |
| C=CCCn1cc(-c2cc(OC(F)F)cc(C(=O)N3CCOCC3)c2)c2cc[nH]c2c1=O | 0.6 µM | 9 µM | – | – | – | – |
| C=CCCn1cc(-c2cnc(OC)c(C(=O)N3CCOCC3)c2)c2cc[nH]c2c1=O | 8.6 µM | 9.6 µM | 1 µM | 0.007 µM | 6.9 µM | – |
| C=CCCn1cc(-c2cnc(OCC)c(C(=O)N3CCOCC3)c2)c2cc[nH]c2c1=O | 6.3 µM | 7.6 µM | 0.59 µM | 0.004 µM | 5.3 µM | – |
| C=CCCn1cc(-c2cccc(C(=O)N3CCN(CCO)CC3)c2)c2cc[nH]c2c1=O | 3.2 µM | 5 µM | 1.1 µM | 0.083 µM | 14 µM | IC50 (CREB-binding protein): > 20 µM |
| C=CCCn1cc(-c2cc(C#N)cc(C(=O)N3CCOCC3)c2)c2cc[nH]c2c1=O | 1.8 µM | 5 µM | – | – | – | – |
| C=CCCn1cc(-c2cc(C(=O)N3CCOCC3)cc3c2ncn3C)c2cc[nH]c2c1=O | > 20 µM | > 20 µM | 1.2 µM | – | – | Kd [6]: 8.9 µM; Kd [7]: 0.005 µM; Activity (NCI-H23): Active; solubility kinetic [8]: 121 µM (≈ 52.2 µg/mL); Kd [9]: 1.2 µM; inhibition [10]: inactive |
